Measurements reported in PubChem BioAssay AID192 (DTP/NCI, 2004).
“And” between values parts separate entries of the source, which are not always exact repeats. Identical values can stand only once. Inconclusive results and toxic doses are left out.

Tested on: BDF1 mice, B16 melanoma ip, median survival T/C
Experiment: NCI In Vivo Anticancer Drug Screen. Data for tumor model B16 Melanoma (intraperitoneal) in B6D2F1 (BDF1) mice
Conditions: endpoint: median survival time, higher = longer survival
Summary of the method: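 Values are ratios of treated (T) to vehicle-control (C) measurements of survival or tumor size in tumor-bearing mice.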

[1] = dose: 0.75 mg/kg/injection, schedule: Q01DX009 (ip), vehicle: saline
[2] = dose: 25.0 mg/kg/injection, schedule: Q01DX009 (ip), vehicle: saline with Tween-80
[3] = dose: 50.0 mg/kg/injection, schedule: Q01DX009 (ip), vehicle: saline with Tween-80
[4] = dose: 100.0 mg/kg/injection, schedule: Q01DX009 (ip), vehicle: saline with Tween-80
[5] = dose: 12.5 mg/kg/injection, schedule: Q01DX009 (ip), vehicle: saline with Tween-80
[6] = dose: 200.0 mg/kg/injection, schedule: Q01DX009 (ip), vehicle: saline with Tween-80
[7] = dose: 50.0 mg/kg/injection, schedule: Q01DX009 (ip), vehicle: Klucel (hydroxypropylcellulose) (HPC)
[8] = dose: 100.0 mg/kg/injection, schedule: Q01DX009 (ip), vehicle: Klucel (hydroxypropylcellulose) (HPC)
[9] = dose: 200.0 mg/kg/injection, schedule: Q01DX009 (ip), vehicle: Klucel (hydroxypropylcellulose) (HPC)
[10] = dose: 12.5 mg/kg/injection, schedule: Q01DX009 (ip), vehicle: Klucel (hydroxypropylcellulose) (HPC)
[11] = dose: 25.0 mg/kg/injection, schedule: Q01DX009 (ip), vehicle: Klucel (hydroxypropylcellulose) (HPC)
[12] = dose: 400.0 mg/kg/injection, schedule: Q01DX009 (ip), vehicle: Klucel (hydroxypropylcellulose) (HPC)
[13] = dose: 6.25 mg/kg/injection, schedule: Q01DX009 (ip), vehicle: Klucel (hydroxypropylcellulose) (HPC)

In the case of `NC(=O)c1cn(C2OC(CO)C(O)C2O)c2ncnc(N)c12` (centres undefined), the T/C (dose: 0.09 mg/kg/injection, schedule: Q01DX009 (ip), vehicle: saline) is reported as 100 % of control, the T/C (dose: 0.12 mg/kg/injection, schedule: Q01DX009 (ip), vehicle: water) is reported as 93 % of control and the T/C (dose: 0.13 mg/kg/injection, schedule: Q01DX009 (ip), vehicle: saline) is reported as 97 % of control. For the same molecule, the T/C (dose: 0.19 mg/kg/injection, schedule: Q01DX009 (ip), vehicle: saline) was 105 % of control, the T/C (dose: 0.25 mg/kg/injection, schedule: Q01DX009 (ip), vehicle: saline) was 102 % of control and the T/C (dose: 0.25 mg/kg/injection, schedule: Q01DX009 (ip), vehicle: water) was 106 % of control. For the same molecule, the T/C (dose: 0.38 mg/kg/injection, schedule: Q01DX009 (ip), vehicle: saline) was 105 % of control, the T/C (dose: 0.5 mg/kg/injection, schedule: Q01DX009 (ip), vehicle: saline) was 102 % of control and the T/C [1] was 114 % of control.
In the case of `CCCc1c(C)[nH]c2ccc(C)cc12`, the T/C [2] is reported as 101 % of control, the T/C [3] is reported as 105 % of control and the T/C [4] is reported as 87 % of control.
In the case of `C[C@]12CC[C@H]3[C@@H](CC[C@]4(O)C[C@@H](O)CC[C@]34C=O)[C@@]1(O)CC[C@@H]2C1=CC(=O)OC1`, the T/C [5] is reported as 104 % of control, the T/C [2] is reported as 92 % of control and the T/C [3] is reported as 97 % of control. For the same molecule, the T/C [4] was 97 % of control and the T/C [6] was 90 % of control.
`CN=C(N)N/N=C(\C)c1ccc2c(c1)Cc1ccccc1-2` was tested, and the T/C [5] was 110 % of control, the T/C [2] was 115 % of control and the T/C [3] was 120 % of control. For the same molecule, the T/C [4] was 112 % of control.
`NCC(=O)Nc1ccc(O)cc1` was tested, and the T/C (dose: 150.0 mg/kg/injection, schedule: Q01DX009 (ip), vehicle: saline) was 94 % of control and the T/C (dose: 300.0 mg/kg/injection, schedule: Q01DX009 (ip), vehicle: saline) was 105 % of control.
`Cc1ccc2no[n+]([O-])c2c1[N+](=O)[O-]` was tested, and the T/C [2] was 93 % of control, the T/C [3] was 97 % of control and the T/C [4] was 98 % of control.
In the case of `OCC1OC(n2cnc3cc(Cl)c(Cl)cc32)C(O)C1O` (centres undefined), the T/C (dose: 6.25 mg/kg/injection, schedule: Q01DX009 (ip), vehicle: saline with Tween-80) is reported as 101 % of control and 117 % of control, the T/C [5] is reported as 100 % of control and 104 % of control and 113 % of control and the T/C [2] is reported as 97 % of control and 113 % of control and 114 % of control. For the same molecule, the T/C [3] was 107 % of control and 116 % of control and the T/C [4] was 102 % of control and 121 % of control.
For `Cc1ccc(C2CC3c4ccccc4C2C2CCCCN32)cc1` (centres undefined), the T/C (dose: 0.78 mg/kg/injection, schedule: Q01DX009 (ip), vehicle: water) was 112 % of control, the T/C (dose: 1.56 mg/kg/injection, schedule: Q01DX009 (ip), vehicle: water) was 104 % of control and the T/C (dose: 3.13 mg/kg/injection, schedule: Q01DX009 (ip), vehicle: water) was 99 % of control and 115 % of control. The T/C (dose: 6.25 mg/kg/injection, schedule: Q01DX009 (ip), vehicle: water) was 107 % of control and 110 % of control, the T/C (dose: 12.5 mg/kg/injection, schedule: Q01DX009 (ip), vehicle: water) was 102 % of control and the T/C (dose: 25.0 mg/kg/injection, schedule: Q01DX009 (ip), vehicle: water) was 98 % of control.
With `Cc1ccc(Nc2nnc(N=Nc3ccccc3)s2)cc1C` the T/C [7] was 86 % of control, the T/C [8] was 91 % of control and the T/C [9] was 91 % of control.
`CCOP(=O)(O)CC(=O)NC(CC(=O)O)C(=O)O` (centres undefined) was tested, and the T/C [10] was 97 % of control, the T/C [11] was 101 % of control and the T/C [7] was 92 % of control. The T/C [8] was 92 % of control, the T/C [9] was 97 % of control and the T/C [12] was 94 % of control.
For `Cc1cc2[nH]c(=O)[nH]c2cc1C`, the T/C [3] was 97 % of control and the T/C [4] was 90 % of control.
With `C=C1C(=O)O[C@H]2/C=C(/C)C3=CC(=O)[C@@](C)(C[C@@H](OC(=O)/C(C)=C\C)C12)O3` (some centres undefined) the T/C (dose: 0.75 mg/kg/injection, schedule: Q01DX009 (ip), vehicle: Klucel (hydroxypropylcellulose) (HPC)) was 98 % of control, the T/C (dose: 1.5 mg/kg/injection, schedule: Q01DX009 (ip), vehicle: Klucel (hydroxypropylcellulose) (HPC)) was 93 % of control and the T/C (dose: 3.0 mg/kg/injection, schedule: Q01DX009 (ip), vehicle: Klucel (hydroxypropylcellulose) (HPC)) was 88 % of control. For the same molecule, the T/C (dose: 6.0 mg/kg/injection, schedule: Q01DX009 (ip), vehicle: Klucel (hydroxypropylcellulose) (HPC)) was 91 % of control and the T/C (dose: 12.0 mg/kg/injection, schedule: Q01DX009 (ip), vehicle: Klucel (hydroxypropylcellulose) (HPC)) was 90 % of control.
In the case of `CC12CCC3C(CCC4CC(OC(=O)Cc5ccc(N(CCCl)CCCl)cc5)CCC43C)C1CCC(=O)N2` (centres undefined), the T/C [1] is reported as 113 % of control, the T/C (dose: 1.5 mg/kg/injection, schedule: Q01DX009 (ip), vehicle: saline with Tween-80) is reported as 110 % of control and the T/C (dose: 1.5 mg/kg/injection, schedule: Q01DX009 (ip), vehicle: saline) is reported as 121 % of control. For the same molecule, the T/C (dose: 3.0 mg/kg/injection, schedule: Q01DX009 (ip), vehicle: saline) was 121 % of control and the T/C (dose: 12.0 mg/kg/injection, schedule: Q01DX009 (ip), vehicle: saline) was 154 % of control.
With `CC(CCc1ccccc1)NC(C)C(O)c1ccc(O)cc1` (centres undefined) the T/C [13] was 93 % of control, the T/C [10] was 105 % of control and the T/C [11] was 94 % of control. For the same molecule, the T/C [7] was 105 % of control and the T/C [8] was 115 % of control.
With `COc1cccc2c1C(=O)c1c(O)c3c(c(O)c1C2=O)C[C@@](O)(C(C)O)C[C@@H]3OC1CC(N2CCOCC2C#N)C(O)C(C)O1` (some centres undefined) the T/C (dose: 4.69 micrograms/kg/injection, schedule: Q01DX001 (ip), vehicle: water) was 110 % of control, the T/C (dose: 9.37 micrograms/kg/injection, schedule: Q01DX001 (ip), vehicle: water) was 115 % of control and the T/C (dose: 37.5 micrograms/kg/injection, schedule: Q01DX001 (ip), vehicle: water) was 124 % of control.
For `CC(=O)CC(=O)N1CCCCC1C` (centres undefined), the T/C [8] was 109 % of control, the T/C [9] was 112 % of control and the T/C [12] was 110 % of control.
In the case of `Brc1cc(Br)cc(-c2nnc(-c3cccc4ccccc34)o2)c1`, the T/C [9] is reported as 94 % of control.
For `CCc1cnccc1C`, the T/C [11] was 100 % of control and the T/C [7] was 112 % of control.
In the case of `NCC1OC(OC2C(CO)OC(OC3C(O)C(N)CC(N)C3OC3OC(CO)C(O)C(O)C3N)C2O)C(N)C(O)C1O` (centres undefined), the T/C (dose: 50.0 mg/kg/injection, schedule: Q01DX009 (ip), vehicle: saline) is reported as 114 % of control, the T/C (dose: 100.0 mg/kg/injection, schedule: Q01DX009 (ip), vehicle: saline) is reported as 108 % of control and the T/C (dose: 200.0 mg/kg/injection, schedule: Q01DX009 (ip), vehicle: saline) is reported as 111 % of control. For the same molecule, the T/C (dose: 400.0 mg/kg/injection, schedule: Q01DX009 (ip), vehicle: saline) was 112 % of control.
`COC1CCCCC1I` (centres undefined) was tested, and the T/C (dose: 50.0 mg/kg/injection, schedule: Q01DX009 (ip), vehicle: alcohol) was 100 % of control, the T/C (dose: 75.0 mg/kg/injection, schedule: Q04DX003 (ip), vehicle: alcohol) was 95 % of control and the T/C (dose: 100.0 mg/kg/injection, schedule: Q01DX009 (ip), vehicle: alcohol) was 92 % of control. The T/C (dose: 150.0 mg/kg/injection, schedule: Q04DX003 (ip), vehicle: alcohol) was 92 % of control.
With `CCCCCCCC(O)CCC` (centres undefined) the T/C [8] was 105 % of control, the T/C [9] was 97 % of control and the T/C [12] was 93 % of control.
In the case of `CCNNC(=O)[C@@H]1[C@H](c2cc(OC)c(OC)c(OC)c2)c2cc3c(cc2[C@H](O)[C@H]1CO)OCO3`, the T/C [3] is reported as 94 % of control and the T/C [4] is reported as 86 % of control.
In the case of `Cc1ccc(CO)cc1C`, the T/C (dose: 50.0 mg/kg/injection, schedule: Q04DX003 (ip), vehicle: saline with Tween-80) is reported as 100 % of control, the T/C (dose: 100.0 mg/kg/injection, schedule: Q04DX003 (ip), vehicle: saline with Tween-80) is reported as 102 % of control and the T/C (dose: 200.0 mg/kg/injection, schedule: Q04DX003 (ip), vehicle: saline with Tween-80) is reported as 104 % of control.
For `NNC(=O)c1ccc(-c2ccccc2)cc1`, the T/C (dose: 12.5 mg/kg/injection, schedule: Q01DX009 (ip), vehicle: other) was 93 % of control, the T/C (dose: 25.0 mg/kg/injection, schedule: Q01DX009 (ip), vehicle: other) was 95 % of control and the T/C (dose: 50.0 mg/kg/injection, schedule: Q01DX009 (ip), vehicle: other) was 100 % of control. The T/C (dose: 100.0 mg/kg/injection, schedule: Q01DX009 (ip), vehicle: other) was 100 % of control.
`CCC[CH2][Sn]1([CH2]CCC)[O]OC(c2ccc(OC)cc2)[O]1` (centres undefined) was tested, and the T/C (dose: 3.12 mg/kg/injection, schedule: Q01DX009 (sc), vehicle: olive oil, sesame oil, peanut oil) was 93 % of control.
`ClC1CCC[N-]C1.ClC1CCC[N-]C1.O=C(O)CC(=O)O.[Pt+2]` (centres undefined) was tested, and the T/C [5] was 96 % of control, the T/C [2] was 95 % of control and the T/C [3] was 94 % of control. The T/C [4] was 93 % of control and the T/C [6] was 89 % of control.
`COC1=CC(=O)C(O)=C(CC2(C)C(C)CCC3(C)C2CCCC3(C)C)C1=O` (centres undefined) was tested, and the T/C (dose: 3.12 mg/kg/injection, schedule: Q01DX009 (ip), vehicle: Klucel (hydroxypropylcellulose) (HPC)) was 91 % of control, the T/C [13] was 96 % of control and the T/C [10] was 96 % of control. The T/C [11] was 104 % of control, the T/C [7] was 100 % of control and the T/C [8] was 100 % of control.
